From ChEMBL document CHEMBL3856234, “Development of Multifunctional Pyrimidinylthiourea Derivatives as Potential Anti-Alzheimer Agents” (J Med Chem, 2016)
Values after ≈ are worked out from the molar mass of the structure shown. Active and inactive are the calls of the source. No cut-off for these calls is given here.

What was measured:
[1] = biological target: T1, Acetylcholinesterase (Rattus norvegicus) (UniProt P37136); experiment: Inhibition of rat cortex AChE at 40 uM using acetylthiocholine iodide as substrate measured after 20 mins by Ellman's method relative to control
T1 sequence (whole entry): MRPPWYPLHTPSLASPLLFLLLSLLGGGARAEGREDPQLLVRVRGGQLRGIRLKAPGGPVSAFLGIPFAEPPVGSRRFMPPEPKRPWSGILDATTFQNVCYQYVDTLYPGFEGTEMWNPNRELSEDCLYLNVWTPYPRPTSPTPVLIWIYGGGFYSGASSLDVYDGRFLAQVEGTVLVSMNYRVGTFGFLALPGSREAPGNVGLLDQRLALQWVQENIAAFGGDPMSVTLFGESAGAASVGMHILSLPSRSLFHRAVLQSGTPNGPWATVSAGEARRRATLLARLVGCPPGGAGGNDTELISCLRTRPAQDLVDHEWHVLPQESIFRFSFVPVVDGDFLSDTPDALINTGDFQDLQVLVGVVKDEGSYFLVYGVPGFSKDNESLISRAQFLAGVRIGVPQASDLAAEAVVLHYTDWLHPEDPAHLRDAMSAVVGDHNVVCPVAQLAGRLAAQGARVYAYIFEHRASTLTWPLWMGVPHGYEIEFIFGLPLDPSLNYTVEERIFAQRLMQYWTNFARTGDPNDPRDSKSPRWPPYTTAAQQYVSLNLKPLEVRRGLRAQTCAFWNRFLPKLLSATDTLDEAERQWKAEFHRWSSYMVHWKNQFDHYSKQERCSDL

Acetylcholinesterase = biological target: T2, Acetylcholinesterase (Rattus norvegicus, UniProt P37136); experiment: Inhibition of rat cortex AChE using acetylthiocholine iodide as substrate measured after 20 mins by Ellman's method
T2 sequence (P37136 whole entry): T1 sequence (whole entry)

Rattus norvegicus [2] = organism: Rattus norvegicus; experiment: Selectivity index, ratio of IC50 for rat serum BuChE to IC50 for rat cortex AChE
[3] = Antioxidant activity assessed as trolox equivalent of AAPH radical scavenging activity preincubated for 10 mins followed by AAPH challenge measured every min for 180 mins by ORAC-FL assay; type: functional
[4] = Solubility of the compound in water measured after 24 hrs by HPLC analysis; type: physicochemical
[5] = Inhibition of rat serum BuChE using butyrylthiocholine as substrate measured after 20 mins by Ellman's method
[6] = Permeability of the compound in PBS/EtOH (7:3) buffer measured after 10 hrs by PAMPA assay; type: ADME; conditions: read-out: Peff
Rattus norvegicus [7] = organism: Rattus norvegicus; experiment: Inhibition of rat serum BuChE at 40 uM using butyrylthiocholine as substrate measured after 20 mins by Ellman's method relative to control
[8] = Cytotoxicity against human SH-SY5Y cells assessed as reduction in cell viability at 100 uM measured after 24 hrs by MTT assay; type: toxicity, cell-based
[9] = Cytotoxicity against human SH-SY5Y cells assessed as reduction in cell viability after 24 hrs in presence of Cu2+ ion by MTT assay; type: toxicity, cell-based
[10] = Metal chelating activity assessed as Zn2+-compound complex formation at 40 uM measured after 1 hr by UV-vis spectroscopic analysis; type: physicochemical
[11] = Cytotoxicity against human SH-SY5Y cells assessed as reduction in cell viability at 10 and 30 uM measured after 24 hrs by MTT assay; type: toxicity, cell-based
[12] = Metal chelating activity assessed as Fe3+-compound complex formation at 40 uM measured after 1 hr by UV-vis spectroscopic analysis; type: physicochemical
[13] = Metal chelating activity assessed as Cu2+-compound complex formation at 40 uM measured after 1 hr by UV-vis spectroscopic analysis; type: physicochemical
[14] = Metal chelating activity assessed as Fe2+-compound complex formation at 40 uM measured after 1 hr by UV-vis spectroscopic analysis; type: physicochemical
[15] = Inhibition of cupric ion-induced aggregation of amyloid beta (1 to 42) (unknown origin) at 50 uM measured after 24 hrs by dot blot assay
[16] = Antioxidant activity assessed as inhibition of Cu2+-induced CCA […] to 7-hydroxy-CCA by measuring decrease in hydroxyl radical production at 10 uM in presence of ascorbate by fluorescence assay
SH-SY5Y = experiment: Neuroprotective activity in human SH-SY5Y cells assessed as protection against Cu2+ induced amyloid-beta (1 to 42) neurotoxicity by measuring increase in cell viability at compound:amyloid-beta (1 to 42):Cu2+ ratio of 2:1:1 after 24 hrs by MTT assay relative to control; type: functional, cell-based
[17] = Inhibition of cupric ion-induced aggregation of amyloid beta (1 to 42) (unknown origin) at compound:amyloid beta (1 to 42):Cu2+ ratio of 2:1:1 measured after 24 hrs by TEM analysis

For `CC(C)NC(=S)Nc1cc(-n2cccn2)ncn1`, the inhibition [1] was 36.2%.
`CCNC(=S)Nc1cc(-n2cnc(C(=O)OC)c2)ncn1` gave an IC50 (Acetylcholinesterase) of 0.347 µM.
Work on `CCNC(=S)Nc1cc(-n2ccnc2)nc(C)n1` yielded an inhibition [1] of 71.4% and an IC50 (Acetylcholinesterase) of 8.72 µM.
`CCCNC(=S)Nc1cc(-n2cccn2)ncn1` gave an inhibition [1] of 64% and an IC50 (Acetylcholinesterase) of 22 µM.
In the case of `CCNC(=S)Nc1cc(-n2cnc(CN(C)Cc3ccccc3)c2)ncn1` [listing 1 of 2 here], the Ratio IC50 (Rattus norvegicus [2]) is reported as 84 and the Activity (umolequiv/umol) [3] is reported as 1.25.
With `CCOc1cc(-n2cccn2)ncn1` the inhibition [1] was 11.8%.
`CCNC(=S)Nc1cc(-n2cnc(CNC3CCCCC3)c2)ncn1` showed an IC50 (Acetylcholinesterase) of 0.424 µM.
Molecule `CCNC(=S)Nc1cc(-n2cnc(CN3CCCC3)c2)ncn1.Cl` has a solubility at 24 h [4] of 19500 µg/mL.
With `CCNC(=S)Nc1cc(-n2cnc(CN(C)Cc3ccccc3)c2)ncn1.Cl` the solubility at 24 h [4] was 2740 µg/mL.
Molecule `CCNC(=S)Nc1cc(-n2cnc(CN3CCCCCC3)c2)ncn1` has a Ratio IC50 (Rattus norvegicus [2]) of 59, an IC50 [5] of 7.19 µM and a Papp at 10 h [6] of 5.3 ×10⁻⁶ cm/s. It also gave an IC50 (Acetylcholinesterase) of 0.121 µM and an Activity (umolequiv/umol) [3] of 1.24.
For `CNCCCN1c2ccccc2CCc2ccccc21` [DESIPRAMINE], the Papp at 10 h [6] was 16.6 ×10⁻⁶ cm/s.
In the case of `CCNC(=S)Nc1cc(-n2cnc(CN(C)C)c2)ncn1`, the Ratio IC50 (Rattus norvegicus [2]) is reported as > 261, the inhibition (Rattus norvegicus [7]) is reported as 7.02% and the IC50 [5] is reported as > 40 µM. For the same molecule, the Papp at 10 h [6] was 3 ×10⁻⁶ cm/s, the IC50 (Acetylcholinesterase) was 0.153 µM and the Activity (umolequiv/umol) [3] was 1.17.
In the case of `CCCN(CCC)Cc1cn(-c2cc(NC(=S)NCC)ncn2)cn1`, the Activity [8] is reported as “Toxic”, the Activity [9] is reported as “Non-Toxic” and the solubility at 24 h [4] is reported as 58 µg/mL (≈ 160 µM). The Activity [10] was “Active”, the Activity [11] was “Non-Toxic” and the Activity [12] was “Active”. The IC50 [5] was > 40 µM, the Papp at 10 h [6] was 7.5 ×10⁻⁶ cm/s and the IC50 (Acetylcholinesterase) was 0.204 µM. For the same molecule, the Activity [13] was “Active” and the Activity [14] was “Active”.
In the case of `CCNC(=S)Nc1cc(N2CCOCC2)ncn1`, the inhibition [1] is reported as 54.1% and the IC50 (Acetylcholinesterase) is reported as 23.2 µM.
In the case of `CCNC(=S)Nc1ccnc(-n2ccnc2)n1`, the inhibition [1] is reported as 46.6% and the IC50 (Acetylcholinesterase) is reported as > 40 µM.
For `c1cc(-n2cnc(CN3CCCC3)c2)ncn1`, the Activity [10] was “Active”, the Activity [12] was “Active” and the Activity [13] was “Active”. For the same molecule, the Activity [14] was “Active” and the Activity (umolequiv/umol) [3] was -0.01.
For `CCNC(=S)Nc1cc(-n2cnc(CN3CCCC3)c2)ncn1` [listing 1 of 2 here], the inhibition [15] was “Active”, the Ratio IC50 (Rattus norvegicus [2]) was > 597 and the inhibition [16] was “Active”. The Activity (SH-SY5Y) was “Active”, the inhibition (Rattus norvegicus [7]) was 33.5% and the inhibition [17] was “Active”. It also gave an Activity (umolequiv/umol) [3] of 1.2.
For `CCNC(=S)Nc1cc(-n2cnc(CN3CCOCC3)c2)ncn1`, the Ratio IC50 (Rattus norvegicus [2]) was > 132, the inhibition (Rattus norvegicus [7]) was 13.3% and the IC50 [5] was > 40 µM. The Papp at 10 h [6] was 0.35 ×10⁻⁶ cm/s, the IC50 (Acetylcholinesterase) was 0.304 µM and the Activity (umolequiv/umol) [3] was 1.48.
Molecule `CCNC(=S)Nc1cc(-n2cnc3ccccc32)ncn1` has an inhibition [1] of 66.2% and an IC50 (Acetylcholinesterase) of 7.84 µM.
In the case of `CCNC(=S)Nc1cc(-n2cnc(C=O)c2)ncn1`, the Ratio IC50 (Rattus norvegicus [2]) is reported as > 241, the inhibition (Rattus norvegicus [7]) is reported as 4.63% and the IC50 [5] is reported as > 40 µM. The IC50 (Acetylcholinesterase) was 0.166 µM and the Activity (umolequiv/umol) [3] was 0.31.
`c1ccc(CNc2cc(-n3cccn3)ncn2)cc1` gave an inhibition [1] of 10.8%.
`Nc1cc(-n2cccn2)ncn1` gave an inhibition [1] of 18.9%.
With `CCNC(=S)Nc1cc(-n2cnc(CN(C)Cc3ccccc3)c2)ncn1` [listing 2 of 2 here] the solubility at 24 h [4] was 58 µg/mL (≈ 152 µM), the IC50 [5] was 15.2 µM and the Papp at 10 h [6] was 8.8 ×10⁻⁶ cm/s. For the same molecule, the IC50 (Acetylcholinesterase) was 0.181 µM.
In the case of `CC(=O)Nc1cc(-n2cccn2)ncn1`, the inhibition [1] is reported as 5.09%.
Molecule `CCNC(=O)Nc1cc(-n2cccn2)ncn1` has an inhibition [1] of 22.1%.
In the case of `CCNC(=S)Nc1cc(-n2cnc(CN3CCCC3)c2)ncn1` [listing 2 of 2 here], the Activity [8] is reported as “Toxic”, the Activity [9] is reported as “Non-Toxic” and the solubility at 24 h [4] is reported as 340 µg/mL (≈ 1030 µM). For the same molecule, the Activity [10] was “Active”, the Activity [11] was “Non-Toxic” and the Activity [12] was “Active”. The IC50 [5] was > 40 µM, the Papp at 10 h [6] was 1.15 ×10⁻⁶ cm/s and the IC50 (Acetylcholinesterase) was 0.067 µM. The Activity [13] was “Active” and the Activity [14] was “Active”.
Molecule `CCNC(=S)Nc1cc(-n2cnc(C(F)(F)F)c2)ncn1` has an IC50 (Acetylcholinesterase) of 0.957 µM.
Work on `CCNC(=S)Nc1cc(-n2ccnn2)ncn1` yielded an inhibition [1] of 61.5% and an IC50 (Acetylcholinesterase) of 14.4 µM.
In the case of `CCNC(=S)Nc1cc(-n2cccn2)ncn1`, the inhibition [1] is reported as 77.3% and the IC50 (Acetylcholinesterase) is reported as 8.14 µM.
`CC(C)(C)NC(=S)Nc1cc(-n2cccn2)ncn1` showed an inhibition [1] of 11.3%.
With `CCNC(=S)Nc1cc(-n2cnc([N+](=O)[O-])c2)ncn1` the IC50 (Acetylcholinesterase) was 0.17 µM.
For `CCNC(=S)Nc1cc(-n2cnc(CN(CC)CC)c2)ncn1`, the Ratio IC50 (Rattus norvegicus [2]) was > 348, the inhibition (Rattus norvegicus [7]) was 20.2% and the IC50 [5] was > 40 µM. The Papp at 10 h [6] was 1 ×10⁻⁶ cm/s, the IC50 (Acetylcholinesterase) was 0.115 µM and the Activity (umolequiv/umol) [3] was 1.31.
